# Laboratory results taken from patent US11530179B2, “Amorphous solid succinylated 3-(fatty acid amido)-2-hydroxy-1 -(protected hydroxy)-propane salts and methods of making the same” (Geron Corporation, priority 2019, dated 2022).
# Assays:
# Assay type in all cases: physicochemical
# [1] = Physical form at room temperature (isolation and storage)
# [2] = Solubility in organic solvents; settings: most organic solvents, at or below ambient temperature
# [3] = Physical stability at room temperature under different relative humidity (RH); settings: for Physical stability, Observation: 20-25° C., 300 mg in uncapped scintillation vial
# Method: The physical stability of the amorphous 3-(palmitoyl amido)-2-hydroxy-1-(dimethoxytriphenylmethyl hydroxy)-propane lithium salts were tested at room temperature under different relative humidity (RH). 300 mg of amorphous 3-(palmitoyl amido)-2-hydroxy-1-(dimethoxytriphenylmethyl hydroxy)-propane lithium salt was placed in uncapped scintillation vials at 11% RH, 33% RH and 75% RH for days. (Table 1)
structure (smiles),measurement,setting,value
CCCCCCCCCCCCCCCC(=O)NCC(COC(c1ccccc1)(c1ccc(OC)cc1)c1ccc(OC)cc1)OC(=O)CCC(=O)[O-].[Li+] (stereo not drawn) [succinylated 3-(palmitoyl amido)-2-hydroxy-1-(dimethoxytriphenylmethyl hydroxy)-propane lithium salt],Physical form,[1],stable solids
same,Solubility in organic solvents,[2],highly soluble
same,"Physical stability, Observation","[3]; 11% RH, examined by gently shaking once every day",Remains free-flowing solids up to 14 days*
same,"Physical stability, Observation","[3]; 33% RH, examined by gently shaking once every day",Remains free-flowing solids up to 14 days*
same,"Physical stability, Observation",[3]; 75% RH,Turns to sticky after 30 min
same,Physical stability,"[3]; room temperature, up to 33% relative humidity",remained solid for an extended period of time
